These results are taken from patent US20080070890A1, “Spirocyclic Azetidinone Compounds and Methods of Use Thereof” (priority 2006, published 2008).

The assay has as its target TRPV1 (Homo sapiens, UniProt Q8NER1). The experiment in a line: cell-based. The protocol:
Combine 42 μL of dye mixture with 11 mL of FLIPR buffer/96-well plate.
Laser is adjusted upwards for an average signal≧10,000/well and less than 10% variability.

Sequence of TRPV1 (Q8NER1 whole entry, species assumed): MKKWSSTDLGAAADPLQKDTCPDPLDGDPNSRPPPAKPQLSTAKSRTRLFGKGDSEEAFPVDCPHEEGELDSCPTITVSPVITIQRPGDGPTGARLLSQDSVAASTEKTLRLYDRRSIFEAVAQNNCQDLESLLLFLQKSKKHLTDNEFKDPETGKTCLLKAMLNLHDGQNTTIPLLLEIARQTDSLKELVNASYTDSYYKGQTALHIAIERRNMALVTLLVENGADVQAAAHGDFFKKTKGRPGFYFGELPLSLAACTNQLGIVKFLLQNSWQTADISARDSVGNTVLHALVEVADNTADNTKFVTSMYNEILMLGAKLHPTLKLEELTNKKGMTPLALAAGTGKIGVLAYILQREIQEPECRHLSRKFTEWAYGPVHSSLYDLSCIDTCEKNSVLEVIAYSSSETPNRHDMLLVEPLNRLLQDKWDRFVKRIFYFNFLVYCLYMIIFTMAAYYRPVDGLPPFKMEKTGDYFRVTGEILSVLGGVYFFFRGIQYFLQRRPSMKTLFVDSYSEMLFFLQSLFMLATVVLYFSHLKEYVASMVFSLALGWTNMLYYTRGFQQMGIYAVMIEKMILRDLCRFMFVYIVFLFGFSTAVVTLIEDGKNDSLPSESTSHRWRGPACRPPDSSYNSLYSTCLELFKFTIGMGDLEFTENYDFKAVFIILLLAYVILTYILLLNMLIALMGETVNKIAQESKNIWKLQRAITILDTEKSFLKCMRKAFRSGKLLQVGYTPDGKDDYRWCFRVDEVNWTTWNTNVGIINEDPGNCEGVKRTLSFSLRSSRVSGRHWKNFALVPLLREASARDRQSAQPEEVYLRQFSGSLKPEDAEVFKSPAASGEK

In general, IC50 refers to the concentration at which inhibition is half-maximal. Compound `Oc1cc2c(cc1O)CN(C(=S)NCCc1ccc(Cl)cc1)CCC2` [capsazepine] showed an IC50 of around 500 nM.
